Results on 28 molecules are retold here after US9579319B2 (Redx Pharma PLC, priority 2013, dated 2017).

In the assay the test system is Hedgehog signalling pathway. The assay can be described thus: Gli-reporter NIH3T3 luciferase assay (Hedgehog pathway inhibition). As to conditions: NIH3T3, Gli-reporter NIH-3T3 cells, recombinant mouse sonic hedgehog, 24 hours, luminescence. It is filed as cell-based. Here is the method:
In vitro biological evaluation of compounds of the invention was carried out using the procedure detailed below. The procedure provides activity data for the compounds of the invention against the Hedgehog signalling pathway. The activity is represented as IC50 values in Table 12 below.
The Gli-reporter NIH3T3 cell line (BPS Biosciences) was grown according to the suppliers recommendations. Briefly, cells were maintained in growth medium (DMEM supplemented with 10% calf serum, 1% Penicillin/Streptomycin, and 500 µg/mL of Geneticin) and grown at 37° C., 5% CO2. In order to passage cells they were first rinsed with phosphate buffered saline before the addition of 0.05% Trypsin/EDTA. Fresh growth media was added and the cells were transferred to a centrifuge tube, spun and resuspended at an appropriate cell density.
Gli-reporter NIH-3T3 cells were seeded at 20,000 cells/well into 96 well, poly-D-lysine coated white clear bottomed full area TC plates in growth media (without geneticin). Three wells were left with just media as cell free controls. Cells were then incubated for 24 hours at 37° C. in a 5% CO2.
Serial dilutions of the test compounds were prepared in 100% DMSO. 10 μl of compound or DMSO from each well was pipetted into a sterile, 0.5 ml deep well conical bottomed 96 well plate (intermediate plate). 190 μl of warmed assay media (Opti-MEM supplemented with 0.5% calf serum, 1% non-essential amino acids, 1 mM sodium pyruvate, 10 mM HEPES, 1% penicillin/Streptomycin) was then added to each well and mixed five times at 180 μl by electronic pipette to ensure homogeneity of the compound solution. This 1:20 dilution gives a top concentration of 50 μM in 5% DMSO, 95% assay media. 10 μl was pipetted from each well of the intermediate plate into a second deep well sterile plate. 490 μl of warm assay media was then added to each well and mixed five times at 300 μl. This gives a final top concentration of 1 μM in 0.1% DMSO.
After the 24 hour incubation, media was carefully removed by pipette and replaced with 45 μl of compound dilutions in triplicate. This was incubated for one hour at 37° C. in a 5% CO2. After an hour, 5 μl 10 μg/mL recombinant mouse sonic hedgehog (R&D Systems) was added to each well and the plates were incubated for a further 24 hours at 37° C., 5% CO2.
After 24 hours, plates were removed from the incubator and left to acclimatise to room temperature for 20 minutes. 50 μl of OneGLO assay reagent (Promega) was then added to each well and the plates gently shaken for a further 30 minutes. Plates were then read for luminescence on the EnVision plate reader (PerkinElmer).

[1] abbreviates: read-out: Category (Hedgehog pathway inhibition activity, IC50).

Like-named read-outs stand apart in the source and are kept apart here.

As for `CN(Cc1ccc(F)cc1F)C1CCN(c2nnc(-c3ccnn3C)c3ccccc23)CC1` [Example 67, N-[(2,4-difluorophenyl)methyl]-N-methyl-1-[4-(2-methylpyrazol-3-yl)phthalazin-1-yl]piperidin-4-amine], the IC50 (commonly the concentration that inhibits the measured activity by half) under setting [1] was in the range of 10 to 200 nM.
As to `Cn1nccc1-c1nnc(N2CCC(NCc3ccc(C#N)cc3)CC2)c2ccccc12` [Example 68, 4-[[[1-[4-(2-methylpyrazol-3-yl)phthalazin-1-yl]-4-piperidyl]amino]methyl]benzonitrile], under setting [1], the IC50 is 200 to 2000 nM.
Same read-out and setting: the result for `COc1ccccc1CNC1CCN(c2nnc(-c3ccnn3C)c3ccccc23)CC1` [Example 69, N-[(2-methoxyphenyl)methyl]-1-[4-(2-methylpyrazol-3-yl)phthalazin-1-yl]piperidin-4-amine] reads 200 to 2000 nM; that for `COc1cccc(CNC2CCN(c3nnc(-c4ccnn4C)c4ccccc34)CC2)c1` [Example 70, N-[(3-methoxyphenyl)methyl]-1-[4-(2-methylpyrazol-3-yl)phthalazin-1-yl]piperidin-4-amine], 10 to 200 nM.
On to `COc1ccc(CNC2CCN(c3nnc(-c4ccnn4C)c4ccccc34)CC2)cc1` [Example 71, N-[(4-methoxyphenyl)methyl]-1-[4-(2-methylpyrazol-3-yl)phthalazin-1-yl]piperidin-4-amine], for which, under setting [1], the half-maximal inhibitory concentration (IC50) was 200 to 2000 nM.
For `Cn1nccc1-c1nnc(N2CCC(NCc3ccccc3F)CC2)c2ccccc12` [Example 72, N-[(2-fluorophenyl)methyl]-1-[4-(2-methylpyrazol-3-yl)phthalazin-1-yl]piperidin-4-amine], the IC50 under setting [1] fell in the range of 10 to 200 nM.
On to `Cn1nccc1-c1nnc(N2CCC(NCc3cccc(F)c3)CC2)c2ccccc12` [Example 73, N-[(3-fluorophenyl)methyl]-1-[4-(2-methylpyrazol-3-yl)phthalazin-1-yl]piperidin-4-amine], for which the IC50 under setting [1] is 10 to 200 nM.
Still for that read-out and setting: the result for `Cn1nccc1-c1nnc(N2CCC(NCc3ccc(F)cc3F)CC2)c2ccccc12` [Example 74, N-[(2,4-difluorophenyl)methyl]-1-[4-(2-methylpyrazol-3-yl)phthalazin-1-yl]piperidin-4-amine] reads 200 to 2000 nM; that for `Cn1nccc1-c1nnc(N2CCC(NCc3ccc(F)cc3)CC2)c2ccccc12` [Example 75, N-[(4-fluorophenyl)methyl]-1-[4-(2-methylpyrazol-3-yl)phthalazin-1-yl]piperidin-4-amine], 200 to 2000 nM; that for `Cn1nccc1-c1nnc(N2CCC(NCc3ccc(F)nc3F)CC2)c2ccccc12` [Example 76, N-[(2,6-difluoro-3-pyridyl)methyl]-1-[4-(2-methylpyrazol-3-yl)phthalazin-1-yl]piperidin-4-amine], 10 to 200 nM.
For the molecule `CC(=O)N(Cc1ccc(F)cc1C(F)(F)F)C1CCN(c2nnc(-c3ccnn3C)c3ccccc23)CC1` [Example 77, N-[[4-fluoro-2-(trifluoromethyl)phenyl]methyl]-N-[1-[4-(2-methylpyrazol-3-yl)phthalazin-1-yl]-4-piperidyl]acetamide], under setting [1], the half-inhibitory concentration (IC50) is 10 to 200 nM.
Regarding `CN(Cc1ccc(F)cc1C(F)(F)F)C1CCN(c2nnc(-c3ccnn3C)c3ccccc23)CC1` [Example 78, N-[[4-fluoro-2-(trifluoromethyl)phenyl]methyl]-N-methyl-1-[4-(2-methylpyrazol-3-yl)phthalazin-1-yl]piperidin-4-amine], the IC50 under setting [1] was below 10 nM.
Regarding `Cn1nccc1-c1nnc(N2CCC(NCc3ccc(F)cc3C(F)(F)F)CC2)c2ccccc12` [Example 79, N-[[4-fluoro-2-(trifluoromethyl)phenyl]methyl]-1-[4-(2-methylpyrazol-3-yl)phthalazin-1-yl]piperidin-4-amine], the IC50 was below 10 nM under setting [1] and 7.85 nM (read-out: Gli Luc nM (IC50)).
Regarding `CN(C(=O)Nc1ccc(F)cc1C(F)(F)F)C1CCN(c2nnc(-c3ccnn3C)c3ncccc23)CC1` [Example 80, 3-[4-fluoro-2-(trifluoromethyl)phenyl]-1-methyl-1-[1-[8-(2-methylpyrazol-3-yl)pyrido[2,3-d]pyridazin-5-yl]-4-piperidyl]urea], the IC50 (read-out: Gli luc IC50) was below 10 nM.
As to `Cc1c(-c2ccnn2C)nnc(N2CCC(N(C)Cc3ccccc3[N+](=O)[O-])CC2)c1C` [Example 81, 1-[4,5-dimethyl-6-(2-methylpyrazol-3-yl)pyridazin-3-yl]-N-methyl-N-[(2-nitrophenyl)methyl]piperidin-4-amine], under “read-out: Gli luc IC50”, the IC50 was below 10 nM.
With `Cc1c(-c2ccnn2C)nnc(N2CCC(N(C)Cc3ccccc3C(C)C)CC2)c1C` [Example 82, 1-[4,5-dimethyl-6-(2-methylpyrazol-3-yl)pyridazin-3-yl]-N-[(2-isopropylphenyl)methyl]-N-methyl-piperidin-4-amine], the IC50 (read-out: Gli luc IC50) lay in the range of 10 to 200 nM.
On the same count and under the same terms, the result for `Cc1c(-c2ccnn2C)nnc(N2CCC(N(C)Cc3cccc(OC(F)(F)F)c3)CC2)c1C` [Example 83, 1-[4,5-dimethyl-6-(2-methylpyrazol-3-yl)pyridazin-3-yl]-N-methyl-N-[[3-(trifluoromethoxy)phenyl]methyl]piperidin-4-amine] reads 10 to 200 nM; that for `Cc1c(-c2ccnn2C)nnc(N2CCC(N(C)Cc3ccccc3C(F)(F)F)CC2)c1C` [Example 84, 1-[4,5-dimethyl-6-(2-methylpyrazol-3-yl)pyridazin-3-yl]-N-methyl-N-[[2-(trifluoromethyl)phenyl]methyl]piperidin-4-amine], 10 to 200 nM.
As to `Cc1c(-c2ccnn2C)nnc(N2CCC(N(C)Cc3ncccc3C(F)(F)F)CC2)c1C` [Example 85, 1-[4,5-dimethyl-6-(2-methylpyrazol-3-yl)pyridazin-3-yl]-N-methyl-N-[[3-(trifluoromethyl)-2-pyridyl]methyl]piperidin-4-amine], the IC50 (read-out: Gli luc IC50) was in the range of 10 to 200 nM.
With `CN(Cc1ccncn1)C1CCN(c2nnc(-c3ccnn3C)c3ccccc23)CC1` [Example 86, N-methyl-1-[4-(2-methylpyrazol-3-yl)phthalazin-1-yl]-N-(pyrimidin-4-ylmethyl)piperidin-4-amine], the IC50 (read-out: Gli luc IC50) was above 200 nM.
Take `Cc1c(-c2ccnn2C)nnc(N2CCC(N(C)Cc3ccccc3C#N)CC2)c1C` [Example 87, 2-[[[1-[4,5-dimethyl-6-(2-methylpyrazol-3-yl)pyridazin-3-yl]-4-piperidyl]-methyl-amino]methyl]benzonitrile]: the IC50 (read-out: Gli luc IC50) fell in the range of 10 to 200 nM.
Same read-out and setting: the same measure for `CSc1ccccc1CN(C)C1CCN(c2nnc(-c3ccnn3C)c(C)c2C)CC1` [Example 88, 1-[4,5-dimethyl-6-(2-methylpyrazol-3-yl)pyridazin-3-yl]-N-methyl-N-[(2-methylsulfanylphenyl)methyl]piperidin-4-amine]: above 200 nM.
On the same count and under the same terms, the result for `Cc1c(-c2ccnn2C)nnc(N2CCC(N(C)Cc3ccnnc3)CC2)c1C` [Example 90, 1-[4,5-dimethyl-6-(2-methylpyrazol-3-yl)pyridazin-3-yl]-N-methyl-N-(pyridazin-4-ylmethyl)piperidin-4-amine] reads above 200 nM.
With `CN(Cc1ccnnc1)C1CCN(c2nnc(-c3ccnn3C)c3ccccc23)CC1` [Example 91, N-methyl-1-[4-(2-methylpyrazol-3-yl)phthalazin-1-yl]-N-(pyridazin-4-ylmethyl)piperidin-4-amine], where the note is “read-out: Gli luc IC50”, the IC50 was above 200 nM.
`CSc1nccc(CN(C)C2CCN(c3nnc(-c4ccnn4C)c4ccccc34)CC2)n1` [Example 92, N-methyl-1-[4-(2-methylpyrazol-3-yl)phthalazin-1-yl]-N-[(2-methylsulfanylpyrimidin-4-yl)methyl]piperidin-4-amine]: the IC50 (read-out: Gli luc IC50) was 10 to 200 nM.
With `CSc1nccc(CN(C)C2CCN(c3nnc(-c4ccnn4C)c(C)c3C)CC2)n1` [Example 93, 1-[4,5-dimethyl-6-(2-methylpyrazol-3-yl)pyridazin-3-yl]-N-methyl-N-[(2-methylsulfanylpyrimidin-4-yl)methyl]piperidin-4-amine], where the note is “read-out: Gli luc IC50”, the IC50 was above 200 nM.
Regarding `Cn1nccc1-c1nnc(N2CCC(N(Cc3ccc(F)cc3C(F)(F)F)C3CC3)CC2)c2ccccc12` [Example 94, N-cyclopropyl-N-[[4-fluoro-2-(trifluoromethyl)phenyl]methyl]-1-[4-(2-methylpyrazol-3-yl)phthalazin-1-yl]piperidin-4-amine], the IC50 (read-out: Gli luc IC50) was above 200 nM.
Turning to `Cc1nc(C(F)(F)F)c(CN(C)C2CCN(c3nnc(-c4ccnn4C)c(C)c3C)CC2)s1` [Example 95, 1-[4,5-dimethyl-6-(2-methylpyrazol-3-yl)pyridazin-3-yl]-N-methyl-N-[[2-methyl-4-(trifluoromethyl)thiazol-5-yl]methyl]piperidin-4-amine], the IC50 (read-out: Gli luc IC50) lay within 10 to 200 nM.
